Test results as given in patent publication US6737383B1, “Herbicidal oxadiazolidines” (priority 1999, dated 2004).

What was measured:
surinam grass = test: Test B pre/postemergence surinam grass; format: in vivo, Brachiaria decumbens
Method in brief: (§1)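 Response is a visual 0-to-10 score relative to untreated plants, where 0 means no effect and 10 means complete control, taken twelve to sixteen days after application. Treatments went onto soil at planting and onto foliage of 1- to 4-leaf plants, using a surfactant-containing non-phytotoxic solvent.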

pigweed = test: Test B pre/postemergence pigweed; format: in vivo, Amaranthus retroflexus; settings: for Redroot pigweed plant response rating: scale of 0 to 10 where 0 is no effect and 10 is complete control
Method in brief: as §1

cocklebur = test: Test B pre/postemergence cocklebur; format: in vivo, Xanthium strumarium; settings: for Cocklebur plant response rating: scale of 0 to 10 where 0 is no effect and 10 is complete control
Method in brief: as §1

wild oat = test: Test B pre/postemergence wild oat; format: in vivo, Avena fatua; settings: for Wild oats plant response rating: scale of 0 to 10 where 0 is no effect and 10 is complete control
Method in brief: as §1

wheat = test: Test B pre/postemergence wheat; format: in vivo, Triticum aestivum; settings: for Wheat plant response rating: scale of 0 to 10 where 0 is no effect and 10 is complete control
Method in brief: as §1

rape = test: Test B pre/postemergence rape; format: in vivo, Brassica napus; settings: for Rape plant response rating: scale of 0 to 10 where 0 is no effect and 10 is complete control
Method in brief: as §1

sugar beet = test: Test B pre/postemergence sugar beet; format: in vivo, Beta vulgaris; settings: for Sugarbeets plant response rating: scale of 0 to 10 where 0 is no effect and 10 is complete control
Method in brief: as §1

soybean = test: Test B pre/postemergence soybean; format: in vivo, Glycine max; settings: for Soybean plant response rating: scale of 0 to 10 where 0 is no effect and 10 is complete control
Method in brief: as §1

giant foxtail = test: Test B pre/postemergence giant foxtail; format: in vivo, Setaria faberii; settings: for Giant foxtail plant response rating: scale of 0 to 10 where 0 is no effect and 10 is complete control
Method in brief: as §1

corn = test: Test B pre/postemergence corn; format: in vivo, Zea mays; settings: for Corn plant response rating: scale of 0 to 10 where 0 is no effect and 10 is complete control
Method in brief: as §1

velvetleaf = test: Test B pre/postemergence velvetleaf; format: in vivo, Abutilon theophrasti; settings: for Velvetleaf plant response rating: scale of 0 to 10 where 0 is no effect and 10 is complete control
Method in brief: as §1

rice = test: Test B flood test rice; format: in vivo, Oryza sativa
Method in brief: (§2)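 Flood test on plants grown to the 2-leaf stage; treated plants kept in greenhouse twelve to sixteen days, then visually rated against controls on a 0 (no effect) to 10 (complete control) scale.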

morningglory = test: Test B pre/postemergence morningglory; format: in vivo, Ipomoea hederacea; settings: for Morningglory plant response rating: scale of 0 to 10 where 0 is no effect and 10 is complete control
Method in brief: as §1

bedstraw = test: Test B pre/postemergence bedstraw; format: in vivo, Galium aparine; settings: Postemergence
Method in brief: as §1

smallflower flatsedge = test: Test B flood test smallflower flatsedge; format: in vivo, Cyperus difformis
Method in brief: as §2

blackgrass = test: Test B pre/postemergence blackgrass; format: in vivo, Alopecurus myosuroides
Method in brief: as §1

[1] = Postemergence, Rate 125 g/ha, scale 0 to 10, 0 is no effect, 10 is complete control
[2] = Preemergence, Rate 500 g/ha, scale of 0 to 10 where 0 is no effect and 10 is complete control
[3] = Rate 62 g/ha, Postemergence, scale of 0 to 10 where 0 is no effect and 10 is complete control
[4] = Rate 250 g/ha, Postemergence, scale of 0 to 10 where 0 is no effect and 10 is complete control
[5] = Rate 500 g/ha, Postemergence, scale 0 to 10, 0 no effect, 10 complete control
[6] = Preemergence, Rate 62 g/ha, scale 0 to 10 (0 no effect, 10 complete control)
[7] = Postemergence (flood test), Rate 125 g/ha, scale 0 to 10, 0 is no effect, 10 is complete control
[8] = Rate 62 g/ha, Postemergence (flood test species), scale of 0 to 10 where 0 is no effect and 10 is complete control

CC(C)N(C(=O)n1oc(=O)n(C2CCC2)c1=O)c1ccc(Cl)cc1 [Compound 349]
0: Plant response rating, B. signalgrass (surinam grass; [1]) | B. signalgrass plant response rating (surinam grass; [3]) | Plant response rating, B. signalgrass (surinam grass; [4]) | Plant response rating, B. signalgrass (surinam grass; [5]) | Plant response rating, Redroot pigweed (pigweed; [6]) | Redroot pigweed plant response rating (0 to 10 scale) (pigweed; Preemergence, Rate 125 g/ha) | Redroot pigweed plant response rating (pigweed; Rate 62 g/ha, Postemergence) | Plant response rating, Cocklebur (cocklebur; [1]) | Plant response rating, Cocklebur (cocklebur; [6]) | Cocklebur plant response rating (0 to 10 scale) (cocklebur; Preemergence, Rate 125 g/ha) | Cocklebur plant response rating (cocklebur; Preemergence, Rate 500 g/ha) | Cocklebur plant response rating (cocklebur; Rate 62 g/ha, Postemergence) | Plant response rating, Wild oats (wild oat; [1]) | Plant response rating, Wild oats (wild oat; [6]) | Wild oats plant response rating (0 to 10 scale) (wild oat; Preemergence, Rate 125 g/ha) | Wild oats plant response rating (wild oat; Rate 62 g/ha, Postemergence) | Plant response rating, Wheat (wheat; [1]) | Plant response rating, Wheat (wheat; [6]) | Wheat plant response rating (0 to 10 scale) (wheat; Preemergence, Rate 125 g/ha) | Wheat plant response rating (wheat; Preemergence, Rate 250 g/ha) | Wheat plant response rating (wheat; Preemergence, Rate 500 g/ha) | Wheat plant response rating (wheat; Rate 62 g/ha, Postemergence) | Plant response rating, Rape (rape; [1]) | Plant response rating, Rape (rape; [6]) | Rape plant response rating (0 to 10 scale) (rape; Preemergence, Rate 125 g/ha) | Rape plant response rating (rape; Preemergence, Rate 250 g/ha) | Rape plant response rating (rape; Rate 62 g/ha, Postemergence) | Plant response rating, Rape (rape; [5]) | Plant response rating, Sugarbeets (sugar beet; [1]) | Plant response rating, Sugarbeets (sugar beet; [6]) | Sugarbeets plant response rating (sugar beet; Rate 62 g/ha, Postemergence) | Plant response rating, Sugarbeets (sugar beet; [5]) | Plant response rating, Soybean (soybean; [6]) | Soybean plant response rating (0 to 10 scale) (soybean; Preemergence, Rate 125 g/ha) | Soybean plant response rating (soybean; Preemergence, Rate 250 g/ha) | Soybean plant response rating (soybean; Preemergence, Rate 500 g/ha) | Plant response rating, Giant foxtail (giant foxtail; [1]) | Giant foxtail plant response rating (giant foxtail; Rate 62 g/ha, Postemergence) | Plant response rating, Corn (corn; [1]) | Plant response rating, Corn (corn; [6]) | Corn plant response rating (0 to 10 scale) (corn; Preemergence, Rate 125 g/ha) | Corn plant response rating (corn; Preemergence, Rate 250 g/ha) | Corn plant response rating (corn; Rate 62 g/ha, Postemergence) | Plant response rating, Corn (corn; [5]) | Plant response rating, Velvetleaf (velvetleaf; [1]) | Plant response rating, Velvetleaf (velvetleaf; [6]) | Velvetleaf plant response rating (0 to 10 scale) (velvetleaf; Preemergence, Rate 125 g/ha) | Velvetleaf plant response rating (velvetleaf; Rate 62 g/ha, Postemergence) | Plant response rating, Velvetleaf (velvetleaf; [5]) | Plant response rating, Rice (rice; [7]) | Rice plant response rating (rice; [8]) | Plant response rating, Rice (rice; Rate 500 g/ha, listed under Postemergence (flood test species), scale 0 to 10, 0 no effect, 10 complete control) | Plant response rating, Morningglory (morningglory; [6]) | Morningglory plant response rating (0 to 10 scale) (morningglory; Preemergence, Rate 125 g/ha) | Morningglory plant response rating (morningglory; Preemergence, Rate 250 g/ha) | Morningglory plant response rating (morningglory; Preemergence, Rate 500 g/ha) | S. Flatsedge plant response rating (smallflower flatsedge; [8])
10: Giant foxtail plant response rating (giant foxtail; Preemergence, Rate 250 g/ha) | Giant foxtail plant response rating (giant foxtail; Preemergence, Rate 500 g/ha) | Plant response rating, Morningglory (morningglory; [5])
3: Wild oats plant response rating (wild oat; Preemergence, Rate 250 g/ha) | Plant response rating, Wild oats (wild oat; [5]) | Plant response rating, Wheat (wheat; [5]) | Velvetleaf plant response rating (velvetleaf; Preemergence, Rate 250 g/ha) | Velvetleaf plant response rating (velvetleaf; Preemergence, Rate 500 g/ha) | Plant response rating, Bedstraw (bedstraw; Rate 125 g/ha, scale 0 to 10, 0 is no effect, 10 is complete control) | Plant response rating, Bedstraw (bedstraw; Rate 500 g/ha, scale 0 to 10, 0 no effect, 10 complete control)
5: Plant response rating, Morningglory (morningglory; [1]) | Morningglory plant response rating (morningglory; Rate 62 g/ha, Postemergence) | Plant response rating, S. Flatsedge (smallflower flatsedge; [7])
2: Plant response rating, Redroot pigweed (pigweed; [1]) | Redroot pigweed plant response rating (pigweed; Preemergence, Rate 250 g/ha) | Sugarbeets plant response rating (0 to 10 scale) (sugar beet; Preemergence, Rate 125 g/ha) | Plant response rating, Soybean (soybean; [1]) | Plant response rating, Soybean (soybean; [5]) | Corn plant response rating (corn; Preemergence, Rate 500 g/ha) | Bedstraw plant response rating (bedstraw; Rate 62 g/ha, scale of 0 to 10 where 0 is no effect and 10 is complete control) | Plant response rating, Blackgrass (blackgrass; [6]) | Blackgrass plant response rating (0 to 10 scale) (blackgrass; Preemergence, Rate 125 g/ha)
1: Plant response rating, Cocklebur (cocklebur; [5]) | Soybean plant response rating (soybean; Rate 62 g/ha, Postemergence) | Blackgrass plant response rating (blackgrass; [3])
8: Plant response rating, Giant foxtail (giant foxtail; [6])
4: B. signalgrass plant response rating (surinam grass; [2]) | Plant response rating, Redroot pigweed (pigweed; [5]) | Rape plant response rating (rape; Preemergence, Rate 500 g/ha) | Sugarbeets plant response rating (sugar beet; Preemergence, Rate 250 g/ha) | Sugarbeets plant response rating (sugar beet; Preemergence, Rate 500 g/ha) | Plant response rating, Blackgrass (blackgrass; [1]) | Blackgrass plant response rating (blackgrass; Preemergence, Rate 250 g/ha, scale of 0 to 10 where 0 is no effect and 10 is complete control) | Blackgrass plant response rating (blackgrass; [2]) | Plant response rating, Blackgrass (blackgrass; [4])
7: Redroot pigweed plant response rating (pigweed; Preemergence, Rate 500 g/ha)
9: Wild oats plant response rating (wild oat; Preemergence, Rate 500 g/ha) | Giant foxtail plant response rating (0 to 10 scale) (giant foxtail; Preemergence, Rate 125 g/ha) | Plant response rating, Giant foxtail (giant foxtail; [5])
6: Plant response rating, Blackgrass (blackgrass; [5])
